For experiment [1] the following is noted: Matsumoto et al., 2001, Biochem. Biophys. Res. Commun. 284:655-659; cited from earlier work.
Experiment [2] has as its system ischemic brain injury. The note with it: in vivo; cited from earlier work.
Experiment [3] concerns rat model of Parkinson's disease. The note with it: cited from earlier work.
For experiment [4], the target named is GHS-R (Homo sapiens, UniProt Q92847). Put plainly: GHS-R antagonist activity in a cell based assay (Table 4, Exemplary GHS-R Modulating Compounds).
In experiment [5] the test system is oxidative burst in inflammatory cells following mBI. The experiment is described as follows: Oxidative burst in brain inflammatory cells following mBI (controlled cortical impact, DHR 123 flow cytometry). The experiment is classed as in vivo, C57/B6 mice. The note with it: subcutaneous ghrelin after mBI, compared to mBI without treatment; mice. As for the experimental part:
Ghrelin variant administration reduces oxidative burst in inflammatory cells following mBI. Since no well-accepted animal model exists for concussions, a very small cerebral lesion that closely mimics mBI is used as a model of mBI. C57/B6 mice anesthetized with 5% isoflurane in oxygen (1.7 L/min) are given 0.3 mg/kg buprenorphine subcutaneously for analgesia prior to infliction of the mild brain injury. Anesthesia is assessed by paw pinch reflex. After creating a burr hole through the dura with a dental drill, a lesion using a controlled cortical impactor (CCI) is used to create injury 1 mm lateral and posterior to the bregma (5.0 mm/sec at a depth of 1.0 mm).
Animals are separated into three treatment groups: 1) Sham, 2) mBI, and 3) mBI plus ghrelin variant. A variety of doses can be tested depending upon the particular ghrelin variant. For example, 1 to 50 μg at one or more time points. As one example, treatment with subcutaneous ghrelin variant: 1 dose of 10 μg following mBI and additional dose 10 μg 1 hour after. Brain tissue is harvested at 2-8 hours, preferably about 6 hours post-injury. […] The fluorescence is then measured (AFU), higher intensity means greater oxidative burst and, therefore greater concentration or amount of ROS. […] Oxidative burst, which is a marker for ROS, can be measured by respiratory burst using flow cytometry (e.g., FL1 channel with 488-nm laser).
A general note: In flow cytometry, cells or beads pass a laser one at a time.

GHS-R, sequence (Q92847 whole entry): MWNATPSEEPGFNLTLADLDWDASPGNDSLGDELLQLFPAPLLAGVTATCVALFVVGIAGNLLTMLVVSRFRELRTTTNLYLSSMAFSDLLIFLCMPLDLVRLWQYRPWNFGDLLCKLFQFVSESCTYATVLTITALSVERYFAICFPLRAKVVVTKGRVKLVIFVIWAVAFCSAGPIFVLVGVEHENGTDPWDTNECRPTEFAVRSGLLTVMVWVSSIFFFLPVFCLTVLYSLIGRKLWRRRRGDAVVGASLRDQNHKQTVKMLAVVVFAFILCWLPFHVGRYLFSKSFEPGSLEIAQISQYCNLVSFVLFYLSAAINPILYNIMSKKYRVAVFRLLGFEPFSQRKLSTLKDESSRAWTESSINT

For the molecule `CCCCCCCCOC[C@H](NC(=O)CCCCN)C(=O)N[C@@H](Cc1ccccc1)C(=O)N[C@@H](CC(C)C)C(=O)NCCN` [5-aminopentanoyl-Ser(Octyl)-Phe-Leu-aminoethylamide], the ghrelin activity entry in experiment [1] is “potent ghrelin activity”.

Consider `C=CC[C@]12CCCN1C(=O)CNC2=O` [NNZ-2591, cyclo-L-glycyl-L-2-allylproline], for which, in experiment [2], the “neuroprotection after ischemic brain injury” value is reported as “neuroprotective”. In experiment [3], the motor function entry was “improves motor function”.

In turn, `CCN(CC)CCCS(=O)(=O)N[C@H](CCc1ccccc1)c1nc(-c2ccc3nccn3c2)n[nH]1` [Compound 134, 3-Diethylamino-propane-1-sulfonic acid {(R)-1-[5-(1H-imidazo[1,2,-a]pyridin-6-yl)-2H-[1,2,4]triazol-3-yl]-3-phenyl-propyl}-amide] registered an inhibition constant Ki in experiment [4] of 0.1 to 0.5 µM.

In the case of Ghrelin (GSSFLSPEHQRVQQRKESKKPPAKLQPR), the “Oxidative burst as quantified by Arbitrary Fluorescence Units (AFU)” value in experiment [5] was “reduced the oxidative burst compared to mBI”.

A word on the Ki: it is a measure of affinity in units of concentration, obtained from inhibition or displacement. Low values mean a stronger hold on the target, high ones a looser hold on the target.

The values are drawn from patent US20170281732A1, “METHODS OF TREATING MILD BRAIN INJURY” (OXEIA BIOPHARMACEUTICALS, INC., priority 2014, published 2017).
